Measured values: article PMC7495385, “Role of Escape Mutant-Specific T Cells in Suppression of HIV-1 Replication and Coevolution with HIV-1” (Journal of Virology, 2020)

Tests used:
Assay type in all cases: cell-based, human
[1] = system: HLA-B*52:01-restricted CD8+ T cells (PBMCs of HIV-1 subtype B-infected individuals); test: IFN-γ ELISPOT assay, T cell responses to peptides in HLA-B*52:01+ individuals; details: positive >200 spots/10^6 CD8+ T cells
Method: Ex vivo gamma interferon (IFN-γ) ELISPOT assays were performed as previously described ([6], [49]). The number of spots for a T cell response to each peptide was finally calculated by subtracting the number of spots in wells without peptides. The mean + 3 standard deviations (SD) of the spot number of samples from 13 HIV-1 naive individuals for the peptides was 162 spots/10^6 CD8^+ T cells ([6], [49]). Therefore, we defined >200 spots/10^6 CD8^+ T cells as positive responses.

[2] = system: cross-reactive T cell clone 8F (KI-855); test: ICS assay, 721.221-B*52:01 cells prepulsed with peptide, clone 8F from KI-855; details: cross-reactive clone 8F from KI-855; 2 h, then brefeldin A 4 h at 37°C; IFN-γ; means with SD (n = 3)
Excerpt: (§1) PBMCs were stained with PE- or APC-conjugated tetramers, FITC-conjugated anti-CD3 (Dako, Glostrup, Denmark), Pacific blue-conjugated anti-CD8 MAb (BD Biosciences), and 7-AAD (BD Pharmingen), after which CD3^+ CD8^+ 7AAD^− tetramer^+ T cells were sorted in U-bottomed 96-well microtiter plates (1 cell/well for T cell clones and 100 to 500 cells/well for T cell lines) by using a FACSAria (BD Biosciences). The sorted cells were stimulated with the corresponding epitope peptide and cultured as previously described ([51]). After 2 to 3 weeks in culture, epitope-specific CD8^+ T cells were used in functional assays after their purity had been confirmed by flow cytometry analysis using tetramers.
(§2) 721.221 cells prepulsed with HIV-1 epitope peptide or 721.221 cells infected with HIV-1 were cocultured with T cell clones or lines in a 96-well plate for 2 h at 37°C. Brefeldin A (10 μg/ml) was then added, and the cells were incubated further for 4 h at 37°C. The cells were then fixed with 4% paraformaldehyde and incubated in permeabilization buffer (0.1% saponin–10% fetal bovine serum [FBS]–phosphate-buffered saline [PBS]), after which they were stained with APC-conjugated anti-CD8 MAb (Dako, Denmark) followed by FITC-conjugated anti-IFN-γ MAb (BD Biosciences). The percentage of IFN-γ-producing cells among the CD8^+ T cell population was determined by use of the FACSCanto II.

[3] = system: RI8-6T-specific T cell clone 2F (KI-855); test: ICS assay, 721.221-B*52:01 cells prepulsed with peptide, clone 2F from KI-855; details: RI8-6T-specific T cell clone 2F from KI-855; 2 h, then brefeldin A 4 h at 37°C; IFN-γ; means with SD (n = 3)
Excerpt: as §1, §2

[4] = system: RI8-6T-specific T cell lines (KI-906); test: ICS assay, 721.221-B*52:01 cells prepulsed with peptide, T cell lines from KI-906; details: two RI8-6T-specific T cell lines from KI-906 (Nov 2010, Aug 2013); 2 h, then brefeldin A 4 h at 37°C; IFN-γ+ of CD8+ T cells; means with SD (n = 3)
Excerpt: as §1, §2

Sequence: RMYSPTSI [RI8-6T]
- number of individuals with epitope-specific T cells detected ([1]; 12 HLA-B*52:01+ individuals infected with Gag280V virus, IFN-γ ELISPOT): 4 individuals
- T cell response to peptide in individual KI-809 ([1]; PBMCs from wild-type virus-infected KI-809, ELISPOT): strong T cell response
- recognition of 721.221-B*52:01 cells prepulsed with peptide [2]: effectively recognized
- recognition of 721.221-B*52:01 cells prepulsed with peptide [3]: effectively recognized
- recognition of 721.221-B*52:01 cells prepulsed with peptide [4]: recognized
